# US12133878B2, “Pharmaceutical compositions having a selected release duration” (Foresee Pharmaceuticals Co., Ltd., priority 2017, dated 2024)
# Counter-ions that a name gives are not always drawn.
# Tests used:
# [1] = for molecular weight of PLGA compared with blank control: both 4° C. and RT, after 12 months
# Procedure: Poly(DL-lactide-co-glycolide) (PLGA) of an 85/15 ratio of lactide to glycolide (DLPLG85/15, IV: 0.28) with a lauryl ester end group was dissolved in N-methyl-2-pyrrolidone (NMP) to give a 50% solution by weight. […] The injectable compositions were filled into 1.2 mL polypropylene syringes with luer-lock tips. Then the pre-filled syringes were sealed using luer-lock caps. The capped syringes were packaged in a container and sealed in a plastic bag under vacuum and then stored at 4° C. and room temperature (˜22° C.) for up to 18 months. The injectable composition was sampled at 24 h, 1, 2, 3, 6, 12, and 18-month time points. Purity of leuprolide in the sample was determined by HPLC. Molecular weight of the polymer was determined by gel permeation chromatography (GPC) using polystyrene standards with known molecular weights.
# [2] = In vitro release of leuprolide in PBS at pH 7.4 at 37° C. (HPLC); assay type: physicochemical; settings: for release of leuprolide completed: Example 5, FIG. 3, PLA 16,000 Dalton 60% in NMP, about 12% leuprolide, gamma 25 kGy
# Procedure: The product is supplied in 2 separate syringes with the leuprolide acetate in one syringe and the polymer solution in the other. The two are mixed immediately prior to injection. The polymer solution contains a 50% 8515PLGA polymer solution in NMP. The molecular weight of the polymer is about 20k dalton. […] The leuprolide mesylate was prepared from leuprolide acetate by ion exchange lyophilization process and contains a small amount of acetate. The formulation was mixed and stored in a single syringe. Another formulation was made with LAMS using a PLA polymer with a molecular weight of 15k dalton (PLA-1) and a polydispersity index (PDI) of 1.8. This formulation was also mixed and stored in a single syringe. […] The release sample was taken at predefined time points and analyzed by HPLC.
# The in vitro release of leuprolide was tested from these two formulations. The in vitro release test was performed in PBS at pH 7.4 at 37° C. and the release of leuprolide over time was measured by HPLC. Briefly, an aliquot of the formulation (about 100 mg) was injected into 3 mL phosphate buffer saline solution at pH 7.4 with 0.1% sodium azide at 37° C. The receiving fluid was replaced at predefined time points with fresh buffer solution, and the removed buffer solution diluted 2-fold with phosphate buffer at pH 7.4 was analyzed for drug concentration by HPLC. The amount released at each time point was calculated.
# The in vitro release of leuprolide was tested from several kits of Eligard® 45 mg. These kits contain 1 syringe with leuprolide acetate (LAAc) and one syringe of polymer solution (PLGA8515 in NMP). PLGA8515 used here was prepared with hexanediol as an initiator and has a molar ratio of DL-lactide to Glycolide=85:15. The PLGA8515 polymer has one hydroxyl end group at both ends of the polymer chain. The two syringes are connected and the contents are mixed immediately prior to injection.
# Formulations were made with leuprolide mesylate (LAMS(1.6)) in order to achieve the delivery of leuprolide for a period of 3 months. The leuprolide mesylate was prepared from leuprolide formate by salt exchange lyophilization process and contains a small amount of formic acid. […] The removed release media was analyzed by HPLC for leuprolide content.
# The in vitro release of leuprolide was tested from these two formulations. The in vitro release test was performed in PBS at pH 7.4 at 37° C. and the release of leuprolide was measured by HPLC over time. […]
# Formulations designed for a release duration of one month were made with a 50:50PLGA polymer (MW 50k, PDI 4.0) in NMP using LAMS with a methane sulfonic acid to leuprolide ratio of 1.6:1 and 2.0:1. The formulations were stored at 25° C. and the peptide purity and polymer molecular weight were measured over time. […]
"molecular weight of PLGA decreased, comparing to blank control ([1]; 4° C., after 6 months)",release of leuprolide completed [2],"in vitro release lasts longer versus leuprolide mesylate ([2]; Example 5, same PLA/NMP solution)",molecular weight of PLGA compared with blank control [1],"leuprolide released ([2]; Example 6, FIG. 4, polymer syringe from the Eligard 45 mg kit, at 112 days)",Molecule
more than 10%,~240 days,more than 60 days,,,"CCNC(=O)[C@@H]1CCCN1C(=O)[C@H](CCCNC(=N)N)NC(=O)[C@H](CC(C)C)NC(=O)[C@@H](CC(C)C)NC(=O)[C@H](Cc1ccc(O)cc1)NC(=O)[C@H](CO)NC(=O)[C@H](Cc1c[nH]c2ccccc12)NC(=O)[C@H](Cc1c[nH]cn1)NC(=O)[C@@H]1CCC(=O)N1 [leuprolide acetate, reference compound]"
,,,the same as that of the blank control,,CCNC(=O)[C@@H]1CCCN1C(=O)[C@H](CCCNC(=N)N)NC(=O)[C@H](CC(C)C)NC(=O)[C@@H](CC(C)C)NC(=O)[C@H](Cc1ccc(O)cc1)NC(=O)[C@H](CO)NC(=O)[C@H](Cc1c[nH]c2ccccc12)NC(=O)[C@H](Cc1c[nH]cn1)NC(=O)[C@@H]1CCC(=O)N1 [leuprolide hydrochloride]
,~180 days,,the same as that of the blank control,> 99,leuprolide mesylate
